According to the NIST ThermoML archive (doi:10.1016/j.jct.2018.03.009):
± gives the expanded uncertainty stated by the source.

Conditions: 101.33 kPa, Liquid, Pycnometric method

SMILES	mass density (273.15 K)	mass density (283.15 K)
COCC(C)OC(C)=O (configuration not stated) [1-methoxy-2-propyl acetate]	989.2 ± 4.4 kg/m3	978.2 ± 4.3 kg/m3
CCCCOCCOC(C)=O [2-butoxyethyl acetate]	960.4 ± 5.5 kg/m3	950.4 ± 5.4 kg/m3
COCCOC(C)=O [2-methoxyethyl ethanoate]	1027.8 ± 5.8 kg/m3	1016.8 ± 5.8 kg/m3

Second part, the compound after the results:

mass density (273.15 K)	mass density (283.15 K)	SMILES
1030 ± 5.9 kg/m3	1020 ± 5.8 kg/m3	CCOCCOCCOC(C)=O [2-(2-ethoxyethoxy)ethyl acetate]
975.3 ± 4.3 kg/m3	965.3 ± 4.3 kg/m3	COC(C)CCOC(C)=O (configuration not stated) [3-methoxybutyl acetate]
926.4 ± 4.1 kg/m3	916.3 ± 4 kg/m3	CCOCCOCCOCC [diethylene glycol diethyl ether]
